From patent US9844546B2, “Antibody against human HIF hydroxylase” (OXFORD UNIVERSITY INNOVATION LIMITED, priority 2001, dated 2017)

Tested on: cytoplasmic extract-dependent modification of the 5′ VHL E3 target site
Assay: Peptide competition of cytoplasmic extract-dependent modification of GAL-HIF-1α 344-553, in vitro VHL E3 ubiquitylation
Assay type: biochemical, human
Conditions: 12.5 μM peptide, RCC4 cytoplasmic extract
Method: The E1 activating enzyme used in ubiquitylation assays was either obtained from Affiniti Research (Exeter, UK) or purified from BL21 (DE3) E. coli transfected with plasmid expressing His6-tagged mouse E1. His6-E1 was purified by Ni^2+-agarose affinity chromatography. After dialysis against phosphate buffered saline, glycerol was added to 10% (vol/vol) and 25 ng/μl aliquots stored at −80° C. Human CDC34 recombinant E2 enzyme was from Affiniti Research (Exeter, UK). VHL E3 was obtained by anti-HA immunoprecipitation from stably transfected 7860-VHLHA cell lysates (Iliopoulos et al). GAL-HIF-1α substrate was prepared by anti-GAL immunoprecipitation from [^35S] methionine-labeled TnT rabbit reticulocyte (Promega) translates. Each 40 μl ubiquitylation reaction consisted of 4 μl of 5 mg/ml ubiquitin, 4 μl of 10×ATP regenerating system (20 mM Tris pH7.5, 10 mM ATP, 10 mM magnesium acetate, 300 mM creatine phosphate, 0.5 mg/ml creatine phosphokinase), 2 μl, E1, 3 μl E2, 6 μl VHL E3 immunopurified on protein G sepharose, 6 μl GAL-HIF-1α substrate immunopurified on agarose beads. Reactions were incubated at 30° C. for 2 h with occasional mixing, stopped by the addition of SDS sample buffer and analysed by SDS-PAGE and autoradiography. Cytoplasmic extract-based ubiquitylation assays have been previously described (Cockman).
It has been shown above that the 3′ VHL E3 target site responds to oxygen level via hydroxylation at proline residue 564. This praline residue forms part of a potential motif conserved between the 5′ and 3′ target sites. Mutation of the corresponding proline residue (P402A) in the 5′ target site also results in functional inactivation. It was possible therefore that proline residue 402 was also a target for regulatory hydroxylation, To test this we asked whether polypeptides corresponding to the 3′ VHL E3 target site could interfere with the cytoplasmic extract-dependent modification of the 5′ VHL E3 target site. […]

| Substance | competition of cytoplasmic extract effect on VHL-dependent ubiquitylation of GAL 344-553 |
| --- | --- |
| 19:Pro564Hyp: polypeptide (HIF-1α residues 556-574) containing a trans-4-hydroxy-S-proline residue at position 564 | unable to compete |
| 19:WT: polypeptide comprising HIF-1α residues 556 to 574 | completely ablate the cytoplasmic extract effect |
